Experiments:
SARS-CoV-2 [1] = assay: microbe, parasite or virus in culture; assay type: cell-based; details: Severe acute respiratory syndrome coronavirus 2, Vero C1008; Vero E6, MOI 0.1, within 24 hours of infection; read-out: approximate IC50, cell-free viral RNA levels
SARS-CoV-2 [2] = assay type: cell-based; details: for antiviral activity compared to parent scaffold DMA-01: Vero E6 infected with wild-type SARS-CoV-2; for viral titer compared to DMSO (TCID50 assay): 10 μM and 50 μM, MOI 0.1, 3 days
[3] = tested on: SARS-CoV-2 5′-end and 3′UTR; assay type: cell-based
[4] = Cytotoxicity MTT assay in Vero E6 cells; assay type: cell-based, African green monkey; details: African green monkey, Vero E6 cells; Vero E6, 96 hrs, 33° C., MTT
Description: (§1) Cytotoxicity Assays: Various concentrations of DMAs were added to Vero E6 cells in culture. The cells were incubated at 33° C. for 96 hrs. Cell viability was determined by MTT assay and measured at 570 nm according to the manufacturer's instructions (EMD Millipore). All experiments were performed in triplicate. The concentration of DMAs required to reduce cell viability to 50% of the control cells was expressed as CC50.

Vero E6 cells = assay: Cytotoxicity MTT assay in Vero E6 cells; assay type: cell-based, African green monkey; details: <10 μM, 96 hour, Vero E6
Description: as §1

human coronavirus OC43 = assay type: cell-based; details: for effect on virus titer (in words): 50 μM or 100 μM, Vero E6, MOI=1, 24 hours at 33° C.; for reduced virus titer: 100 μM, Vero E6, MOI=1, 24 hr, plaque formation
SARS-CoV-2 SL6 RNA = assay: Indicator displacement assay (IDA), SL6; assay type: binding; details: RiboGreen displacement, Tris buffer pH 7.4
VeroE6 cells = details: uninfected VeroE6, 3 days of treatment, 10 μM and 50 μM
SARS-CoV-2 SL4 RNA = assay: Indicator displacement assay (IDA), SL4; assay type: binding; details: RiboGreen displacement, Tris buffer pH 7.4
SARS-CoV-2 SL1 RNA = assay: Indicator displacement assay (IDA), SL1; assay type: binding; details: RiboGreen displacement, Tris buffer pH 7.4
[5] = tested on: SARS-CoV-2 stem loop constructs (SL1, SL4, SL5a, SL5b, SL6); assay type: binding; details: RiboGreen displacement, Tris buffer pH 7.4

| Structure (SMILES) | IC50 (SARS-CoV-2 [1]) [µM] | antiviral activity compared to parent scaffold DMA-01 (SARS-CoV-2 [2]) | reduction of FLuc activity [3] | CC50 at 96 h [4] [µM] | cell viability (Vero E6 cells) | effect on virus titer (in words) (human coronavirus OC43) | reduced virus titer (human coronavirus OC43) | affinity for SL6 (IDA) (SARS-CoV-2 SL6 RNA) | viral titer compared to DMSO (TCID50 assay) (SARS-CoV-2 [2]) | cellular viability as measured by ATP content (VeroE6 cells) | affinity for SL4 (IDA) (SARS-CoV-2 SL4 RNA) | affinity for SL1 (IDA) (SARS-CoV-2 SL1 RNA) | binding affinity against any of the constructs (IDA) [5] |
| --- | --- | --- | --- | --- | --- | --- | --- | --- | --- | --- | --- | --- | --- |
| CN(C)c1nc(N)c(C(=O)NC(=N)N)nc1-c1ccc(-c2ccccc2)cc1 [DMA-155] | ~16 | improved antiviral activity | ~90% | ~90 | do not significantly reduce cell viability | reduce virus titer in a dose-dependent manner | ~1,000 fold | strong binder with highest affinity for SL6 |  |  |  |  |  |
| CN(C)c1nc(N)c(C(=O)NC(=N)N)nc1C#Cc1ccccc1 [DMA-135] | ~10 | improved antiviral activity | approximately 50% | > 100 | do not significantly reduce cell viability | reduce virus titer in a dose-dependent manner | ~1,000 fold | weak affinity | dose-dependent reduction in viral titer | without measurable effect on cellular viability | weak affinity | weak affinity |  |
| CN(C)c1nc(N)c(C(=O)NC(=N)N)nc1-c1ccccc1 [DMA-132] |  | improved antiviral activity | approximately 50% | > 100 | do not significantly reduce cell viability | reduce virus titer in a dose-dependent manner | ~1,000 fold |  | dose-dependent reduction in viral titer | without measurable effect on cellular viability |  |  | did not show binding affinity |
| CN(C)c1nc(N)c(C(=O)N=C(N)N)nc1Cl [DMA-1, dimethylamiloride, reference compound] |  |  |  |  |  | no activity |  |  |  |  |  |  | did not show binding affinity |

Reference: patent publication US20240116879A1, “AMILORIDE DERIVATIVES AND METHODS OF USING SAME FOR THE TREATMENT OF VIRAL INFECTIONS” (priority 2020, published 2024)
